Assay [1] concerns H37Rv strain of M. tuberculosis. In words: Alamar Blue Susceptibility Test (MABA). The following applies: H37Rv strain of M. tuberculosis, Alamar Blue; for MIC: Mycobacterium tuberculosis, read-out: MABA (TB growth inhibition, colourimetric assay). Format: cell-based. (In general: Alamar Blue is a resazurin reagent that responds to reducing activity.)
Assay [2] has as its system non replicating phase of M. tuberculosis (H37Rv with a plasmid with an acetimidase promoter driving a luciferase gene). In words: microbe, parasite or virus in culture. Format: cell-based. The note with it: non replicating M. tuberculosis H37Rv luciferase strain; for MIC: Mycobacterium tuberculosis, read-out: LORA (TB growth inhibition, MIC).

In brackets after ≈: the same amount, converted by molar mass. Where a name gives a salt, the structure may show the parent alone.

`COc1ccc(CCNc2nc(N3CCCCC3)nc3ccccc23)cc1` [Compound 84, N-(4-Methoxyphenethyl)-2-(piperidin-1-yl)quinazolin-4-amine hydrochloride]: the MIC in assay [1] is less than 10 µM; in assay [2], 10 to 50 µM.
In the same order, the values of `Clc1ccc(CNc2nc(N3CCCCC3)nc3ccccc23)c(Cl)c1` [Compound 69, N-(2,4-Dichlorobenzyl)-2-(piperidin-1-yl)quinazolin-4-amine] are less than 10 µM and 10 to 50 µM (≈ 3.87 to 19.4 µg/mL).
On the same counts, the results for `c1ccc(CNc2nc(N3CCC(c4ccccc4)CC3)nc3ccccc23)cc1` [Compound 132, N-Benzyl-2-(4-phenylpiperidin-1-yl)quinazolin-4-amine hydrochloride] are less than 10 µM and less than 10 µM.
In the same order, the values of `FC(F)(F)c1ccc(CNc2nc(N3CCCC3)nc3ccccc23)cc1` [Compound 78, 2-(Pyrrolidin-1-yl)-N-(4-(trifluoromethyl)benzyl)quinazolin-4-amine] are less than 10 µM and 10 to 50 µM (≈ 3.72 to 18.6 µg/mL).
In the case of `Fc1ccc(CNc2nc(N3CCCCC3)nc3ccccc23)c(F)c1` [Compound 115, N-(2,4-Difluorobenzyl)-2-(piperidin-1-yl)quinazolin-4-amine hydrochloride], the results for the MIC in assay [1] and in assay [2] were less than 10 µM and 10 to 50 µM, respectively.
On the same counts, the results for `C[C@@H](Nc1nc(N2CCCCC2)nc2ccccc12)c1ccccc1` [Compound 39, (R)—N-(1-Phenylethyl)-2-(piperidin-1-yl)quinazolin-4-amine] are less than 10 µM and 10 to 50 µM (≈ 3.32 to 16.6 µg/mL).
On the same counts, the results for `FC(F)(F)c1ccc(CCNc2nc(N3CCCCC3)nc3ccccc23)cc1` [Compound 105, 2-(Piperidin-1-yl)-N-(4-(trifluoromethyl)phenethyl)quinazolin-4-amine] are less than 10 µM and less than 10 µM.
Consider `Cc1cccc(CNc2nc(N3CCCCC3)nc3ccccc23)c1` [Compound 80, N-(3-Methylbenzyl)-2-(piperidin-1-yl)quinazolin-4-amine hydrochloride], for which the MIC in assay [1] is less than 10 µM; in assay [2], 10 to 50 µM.
In the same order, the values of `Cc1ccc(CNc2nc(N3CCCCC3)nc3ccccc23)cc1` [Compound 43, N-(4-Methylbenzyl)-2-(piperidin-1-yl)quinazolin-4-amine] are less than 10 µM and 10 to 50 µM (≈ 3.32 to 16.6 µg/mL).
In the same order, the values of `c1coc(CNc2nc(N3CCCCC3)nc3ccccc23)c1` [Compound 13, N-(Furan-2-ylmethyl)-2-(piperidin-1-yl)quinazolin-4-amine] are less than 10 µM and 10 to 50 µM (≈ 3.08 to 15.4 µg/mL).
In the case of `Clc1ccc(CNc2nc(N3CCCCC3)c3ccccc3n2)c(Cl)c1` [Compound 112, N-(2,4-Dichlorobenzyl)-4-(piperidin-1-yl)quinazolin-2-amine hydrochloride], the MIC in assay [1] and in assay [2] was less than 10 µM throughout.
As to `COc1ccc(N2CCN(c3nc(NCc4ccccc4)c4ccccc4n3)CC2)cc1` [Compound 136, N-Benzyl-2-(4-(4-methoxyphenyl)piperazin-1-yl)quinazolin-4-amine hydrochloride], the MIC in assay [1] was less than 10 µM; in assay [2], 10 to 50 µM.
In the same order, the values of `c1ccc2c(CNc3nc(N4CCCCC4)nc4ccccc34)cccc2c1` [Compound 37, N-(Naphthalen-1-ylmethyl)-2-(piperidin-1-yl)quinazolin-4-amine] are less than 10 µM and less than 10 µM.
For `c1ccc2c(NC34CC5CC(CC(C5)C3)C4)nc(N3CCCCC3)nc2c1` [Compound 59, N-(1′-Adamantyl)-2-(piperidin-1-yl)quinazolin-4-amine], in assay [1], the “MABA (TB growth inhibition, colourimetric assay)” value was “+++ (10-50 μM=+++)”. Moreover, the “LORA (TB growth inhibition, MIC)” value in assay [2] was “++++ (key: TB growth<10 μM=++++; 10-50 μM=+++; 50-128 μM=++; >128 μM but inhibited=+; no inhibition=−)”.
Take `Fc1ccc(CNc2nc(N3CCCCC3)nc3ccccc23)cc1` [Compound 63, N-(4-Fluorobenzyl)-2-(piperidin-1-yl)quinazolin-4-amine]: the MIC in assay [1] was less than 10 µM; in assay [2], 10 to 50 µM (≈ 3.36 to 16.8 µg/mL).
On the same counts, the results for `Fc1cccc(CNc2nc(N3CCCCC3)nc3ccccc23)c1` [Compound 64, N-(3-Fluorobenzyl)-2-(piperidin-1-yl)quinazolin-4-amine] are less than 10 µM and 10 to 50 µM (≈ 3.36 to 16.8 µg/mL).
In the same order, the values of `c1ccc(CNc2nc(NC3Cc4ccccc4C3)nc3ccccc23)cc1` [Compound 131, N^4-Benzyl-N^2-(2,3-dihydro-1H-inden-2-yl)quinazoline-2,4-diamine] are less than 10 µM and less than 10 µM.
In the same order, the values of `CC(Nc1nc(N2CCOCC2)nc2ccccc12)c1ccccc1` (centres unmarked) [Compound 9, 2-Morpholino-N-(1-phenylethyl)quinazolin-4-amine] are 50 to 128 µM (≈ 16.7 to 42.8 µg/mL) and 50 to 128 µM (≈ 16.7 to 42.8 µg/mL).
Regarding `COc1ccc(CNc2nc(N3CCCCC3)nc3ccccc23)cc1` [Compound 44, N-(4-Methoxybenzyl)-2-(piperidin-1-yl)quinazolin-4-amine], the results for the MIC in assay [1] and in assay [2] were less than 10 µM and 10 to 50 µM (≈ 3.48 to 17.4 µg/mL), respectively.
On the same counts, the results for `c1ccc(CN(Cc2ccccc2)c2nc(N3CCCCC3)nc3ccccc23)cc1` [Compound 66, N,N-Dibenzyl-2-(piperidin-1-yl)quinazolin-4-amine] are less than 10 µM and 10 to 50 µM (≈ 4.09 to 20.4 µg/mL).
In the same order, the values of `FC(F)(F)c1cccc(CNc2nc(N3CCCCC3)nc3ccccc23)c1` [Compound 49, 2-(Piperidin-1-yl)-N-(3-(trifluoromethyl)benzyl)quinazolin-4-amine] are less than 10 µM and 10 to 50 µM (≈ 3.86 to 19.3 µg/mL).
In the same order, the values of `CN(C)c1ccc(CNc2nc(N3CCCCC3)nc3ccccc23)cc1` [Compound 62, N-(4-(Dimethylamino)benzyl)-2-(piperidin-1-yl)quinazolin-4-amine] are less than 10 µM and 10 to 50 µM (≈ 3.61 to 18.1 µg/mL).
Regarding `C[C@@H](Nc1nc(N2CCCCC2)nc2ccccc12)c1ccc2ccccc2c1` [Compound 100, (R)—N-(1-(Naphthalen-2-yl)ethyl)-2-(piperidin-1-yl)quinazolin-4-amine hydrochloride], the MIC in assay [1] is less than 10 µM; in assay [2], 10 to 50 µM.
On the same counts, the results for `Fc1ccc(CNc2nc(N3CCCCC3)nc3ccccc23)cc1F` [Compound 116, N-(3,4-Difluorobenzyl)-2-(piperidin-1-yl)quinazolin-4-amine hydrochloride] are less than 10 µM and 10 to 50 µM.
On the same counts, the results for `FC(F)(F)c1ccc(CNc2nc(NCc3ccccc3)c3ccccc3n2)cc1` [Compound 128, N^4-Benzyl-N^2-(4-(trifluoromethyl)benzyl)quinazoline-2,4-diamine hydrochloride] are less than 10 µM and less than 10 µM.
On the same counts, the results for `Cc1ccc(CNc2nc(NCc3ccc(Cl)cc3)c3ccccc3n2)cc1` [Compound 76, N^4-(4-Chlorobenzyl)-N^2-(4-methylbenzyl)quinazoline-2,4-diamine] are less than 10 µM and 10 to 50 µM (≈ 3.89 to 19.4 µg/mL).
Regarding `c1ccc(CNc2nc(N3CCN(c4ccccc4)CC3)nc3ccccc23)cc1` [Compound 133, N-Benzyl-2-(4-phenylpiperazin-1-yl)quinazolin-4-amine hydrochloride], the MIC is less than 10 µM in assay [1] and 10 to 50 µM in assay [2].
Take `C[C@@H](Nc1nc(N2CCCCC2)nc2ccccc12)c1cccc2ccccc12` [Compound 99, (R)—N-(1-(Naphthalen-1-yl)ethyl)-2-(piperidin-1-yl)quinazolin-4-amine hydrochloride]: the MIC was less than 10 µM in assay [1] and 10 to 50 µM in assay [2].
Turning to `c1ccc2c(NC3C4CC5CC(C4)CC3C5)nc(N3CCOCC3)nc2c1` (centres unmarked) [Compound 16, N-(2′-Adamantyl)-2-morpholinoquinazolin-4-amine], the “MABA (TB growth inhibition, colourimetric assay)” value in assay [1] is reported as “+++ (10-50 μM=+++)”. Besides, in assay [2], the “LORA (TB growth inhibition, MIC)” value is reported as “+++ (10-50 μM=+++)”.
As for `Clc1ccc(CNc2nc(N3CCCCC3)nc3ccccc23)cc1` [Compound 34, N-(4-Chlorobenzyl)-2-(piperidin-1-yl)quinazolin-4-amine], the MIC in assay [1] is less than 10 µM; in assay [2], 10 to 50 µM (≈ 3.53 to 17.6 µg/mL).
For the compound `C[C@@H](Nc1nc(N2CCCCC2)nc2ccccc12)c1ccc(F)cc1` [Compound 98, (R)—N-(1-(4-Fluorophenyl)ethyl)-2-(piperidin-1-yl)quinazolin-4-amine hydrochloride], the MIC was less than 10 µM in assay [1] and 10 to 50 µM in assay [2].
On the same counts, the results for `c1ccc(CNc2cc(N3CCCCC3)nc3ccccc23)cc1` [Compound 54, N-Benzyl-2-(piperidin-1-yl)quinolin-4-amine] are less than 10 µM and less than 10 µM.
On the same counts, the results for `CC(Nc1nc(N2CCNCC2)nc2ccccc12)c1ccccc1` (centres unmarked) [Compound 8, N-(1-Phenylethyl)-2-(piperazin-1-yl)quinazolin-4-amine] are 50 to 128 µM (≈ 16.7 to 42.7 µg/mL) and 10 to 50 µM (≈ 3.33 to 16.7 µg/mL).
On the same counts, the results for `C[C@@H](Nc1nc(N2CCCCC2)nc2ccccc12)c1ccc(Cl)cc1` [Compound 96, (R)—N-(1-(4-Chlorophenyl)ethyl)-2-(piperidin-1-yl)quinazolin-4-amine hydrochloride] are less than 10 µM and 10 to 50 µM.
Turning to `Fc1ccccc1CNc1nc(N2CCCCC2)nc2ccccc12` [Compound 65, N-(2-Fluorobenzyl)-2-(piperidin-1-yl)quinazolin-4-amine], the MIC in assay [1] is less than 10 µM; in assay [2], 10 to 50 µM (≈ 3.36 to 16.8 µg/mL).
On the same counts, the results for `CN1CCN(c2nc(NCc3ccccc3)c3ccccc3n2)CC1` [Compound 6, N-Benzyl-2-(4-methylpiperazin-1-yl)quinazolin-4-amine hydrochloride] are 50 to 128 µM and 50 to 128 µM.
On the same counts, the results for `FC(F)(F)c1ccccc1CNc1nc(N2CCCCC2)nc2ccccc12` [Compound 42, 2-(Piperidin-1-yl)-N-(2-(trifluoromethyl)benzyl)quinazolin-4-amine] are less than 10 µM and 10 to 50 µM (≈ 3.86 to 19.3 µg/mL).

For the origin of these results see US20100317607A1, “USE OF COMPOUNDS FOR PREPARING ANTI-TUBERCULOSIS AGENTS” (INFECTIOUS DISEASE RESEARCH INSTITUTE, priority 2007, published 2010).
